system: GBM8 cells (human glioblastoma neurosphere cell culture); experiment: GBM8 viability assay (Cell Titer Glo luminescence, 3 days); assay type: cell-based; conditions: 72 h, 3 days incubation
Method: Example 283: GBM4 and GBM8 Viability Assay
Cell culture medium was prepared from a NSA proliferation kit (Neurocult) and NeuroCult supplements (Stemcell Tech Cat. #05751) and treated with 20 μL of 10 μg/mL rh EGF, 10 μL of 10 μg/mL rh bFGF and 10 μL of 0.2% Heparin. In this medium, human glioblastoma cells were cultured in ultra-low attachment tissue culture flasks until 1×10^6 cells ml was achieved (GBM4 and GBM8 are distinct neurosphere cell cultures derived from these human patient tissues). GBM4 and GBM8 cells were dissociated and 10 mL of media containing 4000 human glioblastoma cells per 90 uL were transferred to an ultra-low binding 96-well plate and incubated at 37° C. overnight. On the following day, 10 μL of a 1% DMSO solution of test compound in assay medium was added to wells containing the cell suspension and the mixture incubated at 37° C. for 3 days. At this time, the plate was removed from the incubator and allowed to reach room temperature. After about 30 minutes, 50 μL of Cell Titer Glo solution was added to each well and the plate shaken for 1 minute at low speed. After 10 minutes luminescence was recorded using a Tecan Safire2 reader.
Reduction in luminescence compared to DMSO only control wells was used to determine the percentage inhibition of cell growth. IC50s were calculated using the % inhibition of luminescence for serial dilutions of compounds fitted to a 4-parameter fit within the Prism (San Diego) curve fitting program.

Compound	IC50
Cc1cc(NCC(C)O)nc(NC(=O)Nc2ccc(Cl)c(Cl)c2)n1 (stereo not drawn) [Compound 10, 1-{2-[3-(3,4-Dichlorophenyl)ureido]-6-methyl-4-pyrimidinylamino}-2-propanol]	< 1000 nM
Cc1cc(NCCN(C)C)nc(NC(=O)Nc2ccc(Cl)c(Cl)c2)n1 [Compound 11]	< 1000 nM
Cc1cc(NCCO)nc(NC(=O)Nc2ccc(Cl)c(Cl)c2)n1 [Compound 12]	< 1000 nM
Cc1cc(NCCCCO)nc(NC(=O)Nc2ccc(Cl)c(Cl)c2)n1 [Compound 13]	< 1000 nM
Cc1cc(NCCN)nc(NC(=O)Nc2ccc(Cl)c(Cl)c2)n1 [Compound 14]	< 1000 nM
Cc1cc(NCCCCN)nc(NC(=O)Nc2ccc(Cl)c(Cl)c2)n1 [Compound 15]	< 1000 nM
Cc1cc(NCC2CCCN(C)C2)nc(NC(=O)Nc2ccc(Cl)c(Cl)c2)n1 (stereo not drawn) [Compound 16]	< 1000 nM
Cc1cc(NCCOCCO)nc(NC(=O)Nc2ccc(Cl)c(Cl)c2)n1 [Compound 18]	< 1000 nM
Cc1cc(NCCC(N)=O)nc(NC(=O)Nc2ccc(Cl)c(Cl)c2)n1 [Compound 19]	1000 to 10000 nM
COC(=O)CCNc1cc(C)nc(NC(=O)Nc2ccc(Cl)c(Cl)c2)n1 [Compound 20]	< 1000 nM
CNCCCCNc1cc(C)nc(NC(=O)Nc2ccc(Cl)c(Cl)c2)n1 [Compound 26, 1-(3,4-dichlorophenyl)-3-(4-methyl-6-((4-(methylamino)butyl)amino)pyrimidin-2-yl)urea]	< 1000 nM
Cc1cc(NCC2CCCNC2)nc(NC(=O)Nc2ccc(Cl)c(Cl)c2)n1 (stereo not drawn) [Compound 27]	< 1000 nM
CNCCNc1cc(C)nc(NC(=O)Nc2ccc(Cl)c(Cl)c2)n1 [Compound 28]	< 1000 nM
Cc1cc(NCCCO)nc(N2CCN(c3ccc(Cl)c(Cl)c3)C2=O)n1 [Compound 35, 3-(3,4-dichlorophenyl)-1-[4-(3-hydroxypropylamino)-6-methyl-2-pyrimidinyl]-2-imidazolidinone]	< 1000 nM
Cc1cc(NCCCN(C)C)nc(N2CCN(c3ccc(Cl)c(Cl)c3)C2=O)n1 [Compound 36, 3-(3,4-dichlorophenyl)-1-{4-[3-(dimethylamino)propylamino]-6-methyl-2-pyrimidinyl}-2-imidazolidinone]	< 1000 nM
Cc1cc(NCCCO)nc(NC(=O)Nc2ccc(Cl)cc2)n1 [Compound 41, 3-{2-[3-(p-Chlorophenyl)ureido]-6-methyl-4-pyrimidinylamino}-propanol]	< 1000 nM
Cc1cc(NCCCO)nc(NC(=O)Nc2cccc(Cl)c2)n1 [Compound 43, 3-{2-[3-(m-chlorophenyl)ureido]-6-methyl-4-pyrimidinylamino}-propanol]	< 1000 nM
Cc1cc(NCCCN(C)C)nc(NC(=O)Nc2ccc(Cl)cc2)n1 [Compound 44, 1-{2-[3-(4-chloro-phenyl)ureido]-6-methyl-4-pyrimidin-ylamino}-3-(dimethylamino)propane]	< 1000 nM
Cc1cc(NCCCN(C)C)nc(NC(=O)Nc2ccc(Cl)c(C(F)(F)F)c2)n1 [Compound 47, 1-(2-{3-[4-chloro-3-(trifluoromethyl)phenyl]ureido}-6-methyl-4-pyrimidinylamino)-3-(dimethylamino)propane]	< 1000 nM
Cc1cc(NCCO)nc(NC(=O)Nc2ccc(Cl)c(C(F)(F)F)c2)n1 [Compound 49]	< 1000 nM
Cc1cc(NCC(O)CO)nc(NC(=O)Nc2ccc(Cl)c(C(F)(F)F)c2)n1 (stereo not drawn) [Compound 52]	< 1000 nM

Compound	IC50
Cc1cc(NCC(F)(F)CO)nc(NC(=O)Nc2ccc(Cl)c(C(F)(F)F)c2)n1 [Compound 53]	< 1000 nM
Cc1cc(NCC(C)O)nc(NC(=O)Nc2ccc(Cl)c(C(F)(F)F)c2)n1 (stereo not drawn) [Compound 54]	< 1000 nM
Cc1cc(NCCN)nc(NC(=O)Nc2ccc(Cl)c(C(F)(F)F)c2)n1 [Compound 55]	< 1000 nM
Cc1cc(NCCCCN(C)C)nc(NC(=O)Nc2ccc(Cl)c(C(F)(F)F)c2)n1 [Compound 56]	1000 to 10000 nM
Cc1cc(NCCc2ccccn2)nc(NC(=O)Nc2ccc(Cl)c(C(F)(F)F)c2)n1 [Compound 57]	1000 to 10000 nM
CNCCNc1cc(C)nc(NC(=O)Nc2ccc(Cl)c(C(F)(F)F)c2)n1 [Compound 63, 1-(4-chloro-3-(trifluoromethyl)phenyl)-3-(4-methyl-6-((2-(methylamino)ethyl)amino)pyrimidin-2-yl)urea]	1000 to 10000 nM
CNCCCNc1cc(C)nc(NC(=O)Nc2ccc(Cl)c(C(F)(F)F)c2)n1 [Compound 64]	< 1000 nM
Cc1cc(NCC2CCCNC2)nc(NC(=O)Nc2ccc(Cl)c(C(F)(F)F)c2)n1 (stereo not drawn) [Compound 66]	< 1000 nM
Cc1cc(NCCO)nc(NC(=O)Nc2ccccc2)n1 [Compound 71]	1000 to 10000 nM
Cc1cc(NCCCCO)nc(NC(=O)Nc2ccccc2)n1 [Compound 73]	1000 to 10000 nM
Cc1cc(NCCN(C)C)nc(NC(=O)Nc2ccccc2)n1 [Compound 74]	1000 to 10000 nM
Cc1cc(NCCCN)nc(NC(=O)Nc2ccccc2)n1 [Compound 75]	1000 to 10000 nM
Cc1cc(NCCCCN(C)C)nc(NC(=O)Nc2ccccc2)n1 [Compound 76]	1000 to 10000 nM
Cc1cc(NCC(C)O)nc(NC(=O)Nc2ccccc2)n1 (stereo not drawn) [Compound 77]	1000 to 10000 nM
Cc1cc(NCC(O)CO)nc(NC(=O)Nc2ccccc2)n1 (stereo not drawn) [Compound 78]	< 1000 nM
Cc1cc(NCC(F)(F)CO)nc(NC(=O)Nc2ccccc2)n1 [Compound 79]	1000 to 10000 nM
CNCCCNc1cc(C)nc(NC(=O)Nc2ccccc2)n1 [Compound 83, 1-(4-methyl-6-((3-(methylamino)propyl)amino)pyrimidin-2-yl)-3-phenylurea]	1000 to 10000 nM
Cc1cc(NCCCN(C)C)nc(NC(=O)Nc2ccc(OC(F)(F)F)cc2)n1 [Compound 85, 1-(4-((3-(dimethylamino)propyl)amino)-6-methylpyrimidin-2-yl)-3-(4-(trifluoromethoxy)phenyl)urea]	< 1000 nM
Cc1cc(NCCN(C)C)nc(NC(=O)Nc2ccc(OC(F)(F)F)cc2)n1 [Compound 88]	< 1000 nM
CCNc1cc(C)nc(NC(=O)Nc2ccc(OC(F)(F)F)cc2)n1 [Compound 90]	< 1000 nM
COC(=O)CCNc1cc(C)nc(NC(=O)Nc2ccc(OC(F)(F)F)cc2)n1 [Compound 92]	< 1000 nM

The next lines start with the values.

IC50	Compound
< 1000 nM	Cc1cc(NCCCCN(C)C)nc(NC(=O)Nc2ccc(Cl)c(Cl)c2)n1 [Compound 17]
1000 to 10000 nM	Cc1cc(NCCCc2ccccn2)nc(NC(=O)Nc2ccc(Cl)c(Cl)c2)n1 [Compound 21]
< 1000 nM	CNCCCNc1cc(C)nc(NC(=O)Nc2ccc(Cl)c(Cl)c2)n1 [Compound 29]
< 1000 nM	Cc1cc(NCCCN(C)C)nc(NC(=O)Nc2cccc(Cl)c2)n1 [Compound 45, 1-{2-[3-(3-Chloro-phenyl)ureido]-6-methyl-4-pyrimidin-ylamino}-3-(dimethyl-amino)propane]
1000 to 10000 nM	Cc1cc(NCCN(C)C)nc(NC(=O)Nc2ccc(Cl)c(C(F)(F)F)c2)n1 [Compound 48]
< 1000 nM	Cc1cc(NCCCCO)nc(NC(=O)Nc2ccc(Cl)c(C(F)(F)F)c2)n1 [Compound 50]
< 1000 nM	Cc1cc(NCCOCCO)nc(NC(=O)Nc2ccc(Cl)c(C(F)(F)F)c2)n1 [Compound 51]
< 1000 nM	Cc1cc(NCCCc2cnc[nH]2)nc(NC(=O)Nc2ccc(Cl)c(C(F)(F)F)c2)n1 [Compound 59]
< 1000 nM	Cc1cc(NCCC(N)=O)nc(NC(=O)Nc2ccc(Cl)c(C(F)(F)F)c2)n1 [Compound 60]
< 1000 nM	CNCCCCNc1cc(C)nc(NC(=O)Nc2ccc(Cl)c(C(F)(F)F)c2)n1 [Compound 65]
< 1000 nM	Cc1cc(NC2CCNC2)nc(NC(=O)Nc2ccc(Cl)c(C(F)(F)F)c2)n1 (stereo not drawn) [Compound 67]
1000 to 10000 nM	Cc1cc(NCCCN(C)C)nc(NC(=O)Nc2ccccc2)n1 [Compound 69, 1-(4-((3-(dimethylamino)propyl)amino)-6-methylpyrimidin-2-yl)-3-phenylurea]
1000 to 10000 nM	Cc1cc(NCCCO)nc(NC(=O)Nc2ccccc2)n1 [Compound 70, 1-(4-((3-hydroxypropyl)amino)-6-methylpyrimidin-2-yl)-3-phenylurea]
1000 to 10000 nM	Cc1cc(NCCN)nc(NC(=O)Nc2ccccc2)n1 [Compound 72, 1-(4-((2-aminoethyl)amino)-6-methylpyrimidin-2-yl)-3-phenylurea]
1000 to 10000 nM	CNCCNc1cc(C)nc(NC(=O)Nc2ccccc2)n1 [Compound 82, 1-(4-methyl-6-((2-(methylamino)ethyl)amino)pyrimidin-2-yl)-3-phenylurea]
< 1000 nM	Cc1cc(NCCCO)nc(NC(=O)Nc2ccc(OC(F)(F)F)cc2)n1 [Compound 86, 1-(4-((3-hydroxypropyl)amino)-6-methylpyrimidin-2-yl)-3-(4-(trifluoromethoxy)phenyl)urea]
< 1000 nM	Cc1cc(NCCN)nc(NC(=O)Nc2ccc(OC(F)(F)F)cc2)n1 [Compound 87, 1-(4-((2-aminoethyl)amino)-6-methylpyrimidin-2-yl)-3-(4-(trifluoromethoxy)phenyl)urea]
< 1000 nM	Cc1cc(NCCCN)nc(NC(=O)Nc2ccc(OC(F)(F)F)cc2)n1 [Compound 89]
< 1000 nM	CCCNc1cc(C)nc(NC(=O)Nc2ccc(OC(F)(F)F)cc2)n1 [Compound 91]
< 1000 nM	Cc1cc(NCCC(N)=O)nc(NC(=O)Nc2ccc(OC(F)(F)F)cc2)n1 [Compound 93]
< 1000 nM	Cc1cc(NCC(F)(F)CO)nc(NC(=O)Nc2ccc(OC(F)(F)F)cc2)n1 [Compound 94]

— US11691951B2 (Curtana Pharmaceuticals, Inc., priority 2015, dated 2023)
